Assay results reported in patent US11958861B2, “Spirocyclic lactams as JAK2 V617F inhibitors” (Incyte Corporation, priority 2021, dated 2024).
Structures can show the parent of a compound that is named as a salt.

Columns and labels:
[1] = biological target: T1, pseudo-kinase domain (JH2, amino-acids 536-812) of human V617F mutant JAK2 (Homo sapiens, UniProt O60674, F794H/V617F/W659A/W777A); assay: JAK2 LanthaScreen JH2-V617F Binding Assay; conditions: 1 hour at 25° C.
T1 construct: pseudo-kinase domain (JH2, amino-acids 536-812 with 3 surface mutations W659A, W777A, F794H); purchased BPS Bioscience 79498; host or cells: baculovirus expression system
Description: Example C. JAK2 LanthaScreen JH2-V617F Binding Assay
(§1) JAK2 JH2-V617F binding assay utilizes pseudo-kinase domain (JH2, amino-acids 536-812 with 3 surface mutations W659A, W777A, F794H) of human V617F mutant JAK2 expressed as C-terminal His-Avi-tagged, biotinylated protein in a baculovirus expression system (BPS Bioscience, Catalog #79498). The assay was conducted in black 384-well polystyrene plates in a final reaction volume of 20 μL. JAK2 JH2-V617F (0.26 nM) was incubated with compounds (100 nL serially diluted in DMSO) in the presence of 50 nM Fluorescent JAK2-JH2 Tracer (MedChem Express Catalog #HY-102055) and 0.25 nM Streptavidin-Tb cryptate (Cisbio Part #610SATLB) in assay buffer (50 mM Tris, pH=7.5, 10 mM MgCl2, 0.01% Brij-35, 0.1% BSA, 1 mM EGTA, 5% Glycerol and 5 mM DTT). Non-specific binding was accessed in the presence of 2 mM ATP. After incubation for 1 hour at 25° C., LanthaScreen signals were read on a PHERAstar FS plate reader (BMG LABTECH). Data was analyzed with IDBS XLfit and GraphPad Prism 5.0 software using a four parameter dose response curve to determine IC50 for each compound.

[2] = biological target: T2, pseudo-kinase domain (JH2, amino-acids 536-812) of human Wild Type JAK2 (Homo sapiens, UniProt O60674, F794H/W659A/W777A); assay: JAK2 LanthaScreen JH2-WT Binding Assay; conditions: 1 hour at 25° C.
T2 construct: pseudo-kinase domain (JH2, amino-acids 536-812 with 3 surface mutations W659A, W777A, F794H); purchased BPS Bioscience 79463; host or cells: baculovirus expression system
Description: Example B. JAK2 LanthaScreen JH2-WT Binding Assay
as §1, with “JH2-WT” for “JH2-V617F”, “Wild Type” for “V617F mutant”, “#79463).” for “#79498).”, “JH2-WT (0.145” for “JH2-V617F (0.26”

[3] = biological target: T3, catalytic domain (JH1, amino acids 826-1132) of human JAK2 (Homo sapiens, UniProt O60674); assay: JAK2 LanthaScreen JH1 Binding Assay; conditions: 2 hours at 25° C.
T3 construct: catalytic domain (JH1, amino acids 826-1132) of human JAK2; purchased Carna Biosciences 08-445-20N; host or cells: baculovirus expression system
Description: Example A. JAK2 LanthaScreen JH1 Binding Assay
JAK2 JH1 binding assay utilizes catalytic domain (JH1, amino acids 826-1132) of human JAK2 expressed as N-terminal FLAG-tagged, biotinylated protein in a baculovirus expression system (Carna Biosciences, Product #08-445-20N). The assay was conducted in black 384-well polystyrene plates in a final reaction volume of 20 μL. JAK2 JH1 (1.5 nM) was incubated with compounds (100 nL serially diluted in DMSO) in the presence of 50 nM Fluorescent JAK2-JH1 Tracer and 0.5 nM Streptavidin-Tb cryptate (Cisbio Part #610SATLB) in assay buffer (50 mM Tris, pH=7.5, 10 mM MgCl2, 0.01% Brij-35, 0.1% BSA, 1 mM EGTA, 5% Glycerol and 5 mM DTT). Non-specific binding was accessed in the presence of 2 mM ATP. After incubation for 2 hours at 25° C., LanthaScreen signals were read on a PHERAstar FS plate reader (BMG LABTECH). Data was analyzed with IDBS XLfit and GraphPad Prism 5.0 software using a four parameter dose response curve to determine IC50 for each compound.

[4] = biological target: T4, catalytic domain (JH1, amino acids 808-1132) of human JAK2 (Homo sapiens, UniProt O60674); assay: JAK2 HTRF Enzyme Activity Assay; type: biochemical; conditions: ATP 30 μM, read-out: ENZ 30UMATP
T4 construct: catalytic domain (JH1, amino acids 808-1132) of human JAK2; His (N); purchased BPS Bioscience 40450; host or cells: baculovirus expression system
Description: Example D. JAK2 HTRF Enzyme Activity Assay
JAK2 enzyme activity assays utilize catalytic domain (JH1, amino acids 808-1132) of human JAK2 expressed as N-terminal His-tagged protein in a baculovirus expression system (BPS Bioscience, Catalog #40450). The assays was conducted in black 384-well polystyrene plates in a final reaction volume of 20 μL. JAK2 (0.015 nM) was incubated with compounds (100 nL serially diluted in DMSO) in the presence of ATP (30 μM or 1 mM) and 500 nM Biotin-labeled […] (SEQ ID NO.: 1) peptide (BioSource International, custom synthesis) in assay buffer (50 mM Tris, pH=7.5, 10 mM MgCl2, 0.01% Brij-35, 0.1% BSA, 1 mM EGTA, 5% Glycerol and 5 mM DTT) for 60 minutes at 25° C. The reactions were stopped by the addition of 10 μL of detection buffer (50 mM Tris, pH 7.8, 0.5 mg/mL BSA, 150 mM NaCl), supplemented with EDTA, LANCE Eu-W1024 anti-phosphotyrosine (PY20), (PerkinElmer, Catalog #AD0067) and Streptavidin SureLight APC (PerkinElmer Catalog #CR130-100), for a final concentration of 15 mM, 1.5 nM and 75 nM, respectively. HTRF signals were read after 30 minutes incubation at room temperature on a PHERAstar FS plate reader (BMG LABTECH). Data was analyzed with IDBS XLfit and GraphPad Prism 5.0 software using a four parameter dose response curve to determine IC50 for each compound.

T2 sequence (O60674 536-812 W659A/W777A/F794H): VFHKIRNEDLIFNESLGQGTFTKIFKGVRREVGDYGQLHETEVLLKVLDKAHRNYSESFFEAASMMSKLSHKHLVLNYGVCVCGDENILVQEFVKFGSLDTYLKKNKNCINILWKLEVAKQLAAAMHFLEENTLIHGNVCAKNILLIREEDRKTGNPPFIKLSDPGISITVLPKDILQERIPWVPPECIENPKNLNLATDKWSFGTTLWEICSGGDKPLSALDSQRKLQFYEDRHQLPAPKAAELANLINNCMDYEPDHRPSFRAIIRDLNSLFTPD
T4 sequence (O60674 808-1132): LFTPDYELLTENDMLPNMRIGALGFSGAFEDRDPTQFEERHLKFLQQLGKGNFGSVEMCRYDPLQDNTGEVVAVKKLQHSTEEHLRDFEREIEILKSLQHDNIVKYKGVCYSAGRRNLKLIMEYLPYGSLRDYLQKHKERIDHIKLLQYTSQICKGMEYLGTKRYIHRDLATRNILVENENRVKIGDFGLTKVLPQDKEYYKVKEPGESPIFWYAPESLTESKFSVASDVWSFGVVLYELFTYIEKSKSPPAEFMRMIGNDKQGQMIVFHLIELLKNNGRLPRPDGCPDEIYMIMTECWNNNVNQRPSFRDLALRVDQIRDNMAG
T3 sequence (O60674 826-1132): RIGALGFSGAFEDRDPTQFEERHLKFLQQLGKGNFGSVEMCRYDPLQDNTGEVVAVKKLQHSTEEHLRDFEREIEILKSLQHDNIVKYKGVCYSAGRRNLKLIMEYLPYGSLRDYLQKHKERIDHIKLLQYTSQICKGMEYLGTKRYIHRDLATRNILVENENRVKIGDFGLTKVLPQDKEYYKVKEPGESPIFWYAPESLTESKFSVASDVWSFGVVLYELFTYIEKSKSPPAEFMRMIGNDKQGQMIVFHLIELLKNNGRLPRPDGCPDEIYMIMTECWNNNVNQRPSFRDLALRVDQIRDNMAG
T1 sequence (O60674 536-812 V617F/W659A/W777A/F794H): as the sequence (O60674 536-812 W659A/W777A/F794H) above, with V82F counted along it

SMILES | IC50 [1] [µM] | IC50 [2] [µM] | IC50 [3] [µM] | IC50 [4] [µM]
CN1C(=O)C2(CCN(C3(C)CCS(=O)(=O)C3)CC2)c2c1cnc1[nH]c(-c3cnn(C)c3)c(-c3ccc4c(cnn4C)c3)c21 (racemic) [Example 78, 6-Methyl-1′-(3-methyl-1,1-dioxidotetrahydrothiophen-3-yl)-1-(1-methyl-1H-indazol-5-yl)-2-(1-methyl-1H-pyrazol-4-yl)-3,6-dihydro-7H-spiro[dipyrrolo[2,3-b:3′-2′-d]pyridine-8,4′-piperidin]-7-one] | ≤ 0.1 | ≤ 0.1 | 0.5 to 1.25 | 0.5 to 1.25
CCS(=O)(=O)N1CC2(C1)CC1(C2)C(=O)N(C)c2cnc3[nH]c(-c4cnn(C)c4)c(-c4ccc5c(cnn5C)c4)c3c21 [Example 86, l-(Ethylsulfonyl)-6″-methyl-1″-(1-methyl-1H-indazol-5-yl)-2″-(1-methyl-1H-pyrazol-4-yl)-3″,6″-dihydro-7″H-dispiro[azetidine-3,1′-cyclobutane-3′,8″-dipyrrolo[2,3-b:3′,2′-d]pyridin]-7″-one, trifluoroacetate salt] | ≤ 0.1 | ≤ 0.1 | 0.5 to 1.25 | 0.5 to 1.25
CN1C(=O)C2(CCC2)c2c1cnc1[nH]c(-c3ccc(CN4CCC(S(C)(=O)=O)CC4)cc3)c(-c3ccccc3)c21 [Example 10, 6′-Methyl-2′-(4-((4-(methylsulfonyl)piperidin-1-yl)methyl)phenyl)-1′-phenyl-3′,6′-dihydro-7′H-spiro[cyclobutane-1,8′-dipyrrolo[2,3-b:3′,2′-d]pyridin]-7′-one trifluoroacetate salt] | ≤ 0.1 | ≤ 0.1 | > 2.5 | > 2.5
CCc1c(-c2cnn(C)c2)[nH]c2ncc3c(c12)C1(CCN(c2ccncn2)CC1)C(=O)N3C [Example 19, 1-Ethyl-6-methyl-2-(1-methyl-1H-pyrazol-4-yl)-1′-(pyrimidin-4-yl)-3,6-dihydro-7H-spiro[dipyrrolo[2,3-b:3′,2′-d]pyridine-8,4′-piperidin]-7-one, trifluoroacetate salt] | 0.1 to 0.5 | 0.1 to 0.5 | 1.25 to 2.5 | 1.25 to 2.5
CN1C(=O)[C@]2(CCN(CC3(CC#N)CC3)C2)c2c1cnc1[nH]c(-c3cnn(C)c3)c(-c3ccc4c(cnn4C)c3)c21 (single isomer, unassigned) [Example 65] | ≤ 0.1 | ≤ 0.1 | > 2.5 | > 2.5
O=C(O)C(F)(F)F.[2H]C([2H])([2H])n1ncc2cc(-c3c(-c4cnn(CC(C)(C)OC)c4)[nH]c4ncc5c(c34)C3(CC4(CN(S(=O)(=O)CC)C4)C3)C(=O)N5C)ccc21 [Example 96, 1-(Ethylsulfonyl)-2″-(1-(2-methoxy-2-methylpropyl)-1H-pyrazol-4-yl)-6″-methyl-1″-(1-(methyl-d3)-1H-indazol-5-yl)-3″,6″-dihydro-7″H-dispiro[azetidine-3,1′-cyclobutane-3′,8″-dipyrrolo[2,3-b:3′,2′-d]pyridin]-7″-one, trifluoroacetate salt] | ≤ 0.1 | ≤ 0.1 | > 2.5 | > 2.5
CN1C(=O)C2(CCN(C3(CC#N)CCC3)CC2)c2c1cnc1[nH]c(-c3cnn(CC(C)(C)O)c3)c(-c3ccc(C(F)(F)F)cc3)c21 [Example 52, 2-(1-(2-(1-(2-Hydroxy-2-methylpropyl)-1H-pyrazol-4-yl)-6-methyl-7-oxo-1-(4-(trifluoromethyl)phenyl)-6,7-dihydro-3H-spiro[dipyrrolo[2,3-b:3′,2′-d]pyridine-8,4′-piperidin]-1′-yl)cyclobutyl)acetonitrile, trifluoroacetate salt] | ≤ 0.1 | ≤ 0.1 | > 2.5 | > 2.5
CN1C(=O)C2(CCCC2)c2c1cnc1[nH]c(C3CC3)c(-c3ccc4c(cnn4C)c3)c21 [Example 9, 2′-Cyclopropyl-6′-methyl-1′-(1-methyl-1H-indazol-5-yl)-3′,6′-dihydro-7′H-spiro[cyclopentane-1,8′-dipyrrolo[2,3-b:3′,2′-d]pyridin]-7′-one, trifluoroacetate salt] | 0.1 to 0.5 | 0.1 to 0.5 | > 2.5 | > 2.5
O=C(O)C(F)(F)F.[2H]C([2H])([2H])N1C(=O)C2(CC3(CN(S(=O)(=O)CC)C3)C2)c2c1cnc1[nH]c(-c3ccc(CN4CCOCC4)cc3)c(-c3ccc(OC)cc3)c21 [Example 92, 1-(Ethylsulfonyl)-1″-(4-methoxyphenyl)-6″-(methyl-d3)-2″-(4-(morpholinomethyl)phenyl)-3″,6″-dihydro-7″H-dispiro[azetidine-3,1′-cyclobutane-3′,8″-dipyrrolo[2,3-b:3′,2′-d]pyridin]-7″-one, trifluoroacetate salt] | ≤ 0.1 | ≤ 0.1 | > 2.5 | > 2.5
CN1C(=O)C2(CCN(S(=O)(=O)C3(CC#N)CC3)C2)c2c1cnc1[nH]c(-c3cnn(C)c3)c(-c3ccc4c(cnn4C)c3)c21 (racemic) [Example 71, 2-(1-((6-Methyl-1-(1-methyl-1H-indazol-5-yl)-2-(1-methyl-1H-pyrazol-4-yl)-7-oxo-6,7-dihydro-3H-spiro[dipyrrolo[2,3-b:3′,2′-d]pyridine-8,3′-pyrrolidin]-1′-yl)sulfonyl)cyclopropyl)acetonitrile, trifluoroacetate salt] | ≤ 0.1 | ≤ 0.1 | 1.25 to 2.5 | 1.25 to 2.5
